In US20260098017A1, “NOVEL AROMATIC RING DERIVATIVE CONTAINING AMIDE SUBSTITUTION AND USE THEREOF” (TIANJIN PHARMACEUTICAL BIOTECHNOLOGY CO., LTD., priority 2022, published 2026):

Assays:
[1] = target: JAK3 JH1 kinase (Homo sapiens, UniProt P52333); assay: JAK3 JH1 enzyme assay in vitro (TR-FRET); type: biochemical; conditions: TR-FRET; read-out: JAK 3 JH1 IC50
[2] = target: JAK1 JH1 kinase (Homo sapiens, UniProt P23458); assay: JAK1 JH1 enzyme assay in vitro (TR-FRET); type: biochemical; conditions: read-out: JAK 1 JH1 IC50
[3] = system: imiquimod-induced mouse psoriasis-like model; assay: Imiquimod-induced mouse psoriasis-like model (PASI score); type: in vivo; conditions: oral gavage, 10 mg/kg, 25 mg/kg, 50 mg/kg, bid, compared with the model group
[4] = target: Ba/F3 cell line expressing TYK2 (Homo sapiens, UniProt P29597, cells depend on it, form not given); assay: In vitro cellular inhibition assay (Ba/F3 cell proliferation, CellTiter-Glo); type: cell-based; conditions: read-out: IC50 (the source's name)
Protocol: The inhibitory effect of the compounds of formula (I) according to the present invention on the TYK2 signaling pathway in cells was assessed using the following method:
Instrumentation: SpectraMax Paradigm reader.
Method: in this experiment, a Ba/F3 cell line expressing TYK2 was employed to assess the effect of the compounds on cell proliferation inhibition by measuring their effects on cell activity in vitro.
Procedure: a CellTiter-Glo buffer was thawed and placed aside till room temperature. A CellTiter-Glo substrate was placed aside till room temperature and dissolved with the buffer to prepare a CellTiter-Glo working solution. To a 96-well flat bottom transparent drug plate, 98 μL of cell culture medium and 2 μL of gradient diluted compound solution were added. The drug plate was placed aside for 10 min, and then 50 μL of the CellTiter-Glo working solution was added. The drug plate was subsequently shaken on an orbital shaker for 2 min and placed aside at room temperature for an additional 10 min. Finally, the luminescence signal was measured on the SpectraMax Paradigm reader.
Data Analysis: the cell proliferation inhibition rate data were processed using the following formula:
Inhibition Rate (Inh %)=100−(RLUDrug−RLUMin)/(RLUMax−RLUMin)×100%.
The inhibition rates of compounds with different concentrations were calculated in EXCEL, and then GraphPad Prism software was employed to plot inhibition rate curve and calculate relevant parameters, including maximum and minimum cell inhibition rates, IC50 values.

[5] = target: T1, TYK2 JH1 kinase (Homo sapiens, UniProt P29597); assay: TYK2 JH1 enzyme assay in vitro (TR-FRET); type: biochemical
T1 sequence (P29597 897-1176 limits assumed): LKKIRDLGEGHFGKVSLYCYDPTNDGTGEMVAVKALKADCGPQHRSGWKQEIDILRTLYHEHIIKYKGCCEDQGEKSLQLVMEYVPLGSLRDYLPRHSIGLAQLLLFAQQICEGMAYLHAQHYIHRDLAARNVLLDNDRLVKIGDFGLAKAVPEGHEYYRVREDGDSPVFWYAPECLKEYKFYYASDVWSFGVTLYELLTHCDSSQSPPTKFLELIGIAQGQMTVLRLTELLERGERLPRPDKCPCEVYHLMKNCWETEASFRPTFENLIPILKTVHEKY

[6] = target: TYK2 JH2 pseudokinase (Homo sapiens, UniProt P29597); assay: TYK2 JH2 enzyme binding assay in vitro (TR-FRET)
Protocol: Instrumentation: Envision microplate reader (PerkinElmer), ECHO550 (LABCYTE).
Method: the inhibitory effects of compounds on TYK2 JH2 pseudokinase was tested using time-resolved fluorescence resonance energy transfer (TR-FRET) method.
Procedure: compounds were prepared into 10 mM stock solutions using DMSO, which were further diluted into compound dilutions (200×) with different concentration gradients in DMSO, and the compound dilutions (200×) were transferred to a 384-well assay plate using an Echo instrument. […] TYK2 JH2 pseudokinase, Tb antibody, and Tracer working solutions were prepared using the dilution buffer, respectively. 5 uL of TYK2 JH2 pseudokinase working solution (final concentration 0.5 nM) was added to a 384-well assay plate, and centrifuged at 1000 rpm for 30 s. 5 uL of Tb antibody (final concentration 1×) was added to the 384-well assay plate, and centrifuged at 1000 rpm for 30 s. 5 uL of Tracer (final concentration 0.5 nM) was added to the 384-well assay plate, and centrifuged at 1000 rpm for 30 s. Incubation was performed at room temperature for 60 min, and then at 4° C. overnight.
Data Analysis: XLfit, a software developed by IDBS and integrated into the Microsoft Excel environment, was used to process and analyze the test data.

[7] = target: JAK2 JH1 kinase (Homo sapiens, UniProt O60674); assay: JAK2 JH1 enzyme assay in vitro (TR-FRET); type: biochemical; conditions: read-out: JAK 2 JH1 IC50
[8] = target: T2, hERG channel (Homo sapiens, UniProt Q12809); assay: hERG potassium channel inhibition assay (manual patch clamp); type: cell-based; conditions: HEK-293 cell line stably expressing hERG channel, at the tested concentrations
T2 construct: expressed in transfected cells; host or cells: HEK-293
Protocol: Instrumentation: HEKA EPC 10 patch clamp amplifier.
Method: in this experiment, the blocking effect of the compounds on the current of the HEK-293 cell line stably expressing hERG channel was measured using the manual patch clamp technique, and the risk of the compounds on the inhibition of cardiac hERG potassium channel was assessed by fitting the concentration effect relationship.
Procedure: in the patch clamp operation, firstly, a capillary glass tube was pulled into a recording electrode using a microelectrode puller, then an electrode filled with intracellular solution was mounted into a microelectrode holder. A microelectrode manipulator was operated under an inverted microscope to immerse the electrode into an extracellular solution and the electrode resistance (Rpip) was recorded. Then, the electrode was slowly brought into contact with the cell surface, and a negative pressure was applied for suction to form a GΩ seal. At this point, a fast capacitance compensation was performed, and a negative pressure was continuously applied to suck and break the cell membrane to form a whole cell recording mode. Finally, a slow capacitance compensation was performed and experimental parameters including series resistance (Rs) and the like were recorded. No leakage compensation was performed. When the hERG current recorded by the whole cell was stable, the administration of drugs commenced, and each drug concentration acted for about 5 min (or until the current stabilization) before detecting the next concentration. A cover glass covered with cells was placed in a recording bath under an inverted microscope, the blank control extracellular solution and the working solution of the compounds to be tested sequentially flowed through the recording bath from low concentration to high concentration by using gravity perfusion to act on the cells, and solution exchange was performed using a peristaltic pump during recording. The current measured by each cell in the extracellular solution without the compound served as its own control group. Each concentration was independently assessed twice. All electrophysiological tests were performed at room temperature.
Data Analysis: firstly, the tail current (Peak tail currentcompound) after the action of each drug concentration and the blank control tail current (Peak tail currentcontrol) were normalized, then the inhibition rate
corresponding to each drug concentration was calculated, and the mean (Mean), standard deviation (SD) and standard error (SE) of the inhibition rate corresponding to each concentration were calculated, with data expressed as Mean±SE. The calculation of IC50 value and the fitting of dose-response curve for the compound were performed using GraphPad Prism software.

[9] = target: JAK1 JH2 pseudokinase (Homo sapiens, UniProt P23458); assay: JAK1 JH2 enzyme binding assay in vitro (TR-FRET); conditions: read-out: JAK 1 JH2 IC50
Protocol: Instrumentation: Envision microplate reader (PerkinElmer), Echo (LABCYTE)
Method: in this experiment, the inhibitory effects of compounds on JAK1 JH2 pseudokinase was tested using time-resolved fluorescence resonance energy transfer (TR-FRET) method.
Procedure: compounds were prepared into 10 mM stock solutions using DMSO, which were further diluted into compound dilutions with different concentration gradients in DMSO, and the compound dilutions with 200× final concentration were transferred to a 384-well assay plate using an Echo instrument. The preparation of the following 1× assay working solution: HEPES pH7.5 at a final concentration of 20 mM, MgCl2 at a final concentration of 10 mM, Brij-35 at a final concentration of 0.015%, DTT at a final concentration of 2 mM, BSA at a final concentration of 50 ug/mL. JAK1 JH2 pseudokinase with 3× final concentration, Tb antibody and Tracer were prepared using their respective 1× working solution. 5 uL of JAK1 JH2 pseudokinase was added to a 384-well assay plate, and centrifuged at 1000 rpm for 30 s. 5 uL of Tb antibody was added to the 384-well assay plate, and centrifuged at 1000 rpm for 30 s. 5 uL of Tracer was added to the 384-well assay plate, and centrifuged at 1000 rpm for 30 s. Incubation was performed at room temperature for 60 min, and then at 4° C. overnight. Finally, the 495 nm/520 nm fluorescence signal ratio was measured using the Envision microplate reader (PerkinElmer).
Data Analysis: XLfit, a software developed by IDBS and integrated into the Microsoft Excel environment, was used to process and analyze the test data. […] Thereafter, the concentration and corresponding inhibition rate data were imported into the XLfit software, and the Dose Response One Site 205 model within the software was employed to fit the inhibition rate-concentration curve by four-parameter method, and the IC50 value of the compound was calculated.

Chain of JAK1 JH1 kinase (P23458 875-1153 limits assumed): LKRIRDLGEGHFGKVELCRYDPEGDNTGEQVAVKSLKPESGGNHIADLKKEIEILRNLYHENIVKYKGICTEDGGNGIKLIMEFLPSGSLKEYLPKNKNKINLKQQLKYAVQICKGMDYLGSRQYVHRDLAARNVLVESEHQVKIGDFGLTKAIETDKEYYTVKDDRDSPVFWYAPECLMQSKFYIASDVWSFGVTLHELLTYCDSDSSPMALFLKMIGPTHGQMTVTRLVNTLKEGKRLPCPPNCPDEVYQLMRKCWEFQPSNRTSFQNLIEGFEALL
T2 sequence (Q12809 whole entry): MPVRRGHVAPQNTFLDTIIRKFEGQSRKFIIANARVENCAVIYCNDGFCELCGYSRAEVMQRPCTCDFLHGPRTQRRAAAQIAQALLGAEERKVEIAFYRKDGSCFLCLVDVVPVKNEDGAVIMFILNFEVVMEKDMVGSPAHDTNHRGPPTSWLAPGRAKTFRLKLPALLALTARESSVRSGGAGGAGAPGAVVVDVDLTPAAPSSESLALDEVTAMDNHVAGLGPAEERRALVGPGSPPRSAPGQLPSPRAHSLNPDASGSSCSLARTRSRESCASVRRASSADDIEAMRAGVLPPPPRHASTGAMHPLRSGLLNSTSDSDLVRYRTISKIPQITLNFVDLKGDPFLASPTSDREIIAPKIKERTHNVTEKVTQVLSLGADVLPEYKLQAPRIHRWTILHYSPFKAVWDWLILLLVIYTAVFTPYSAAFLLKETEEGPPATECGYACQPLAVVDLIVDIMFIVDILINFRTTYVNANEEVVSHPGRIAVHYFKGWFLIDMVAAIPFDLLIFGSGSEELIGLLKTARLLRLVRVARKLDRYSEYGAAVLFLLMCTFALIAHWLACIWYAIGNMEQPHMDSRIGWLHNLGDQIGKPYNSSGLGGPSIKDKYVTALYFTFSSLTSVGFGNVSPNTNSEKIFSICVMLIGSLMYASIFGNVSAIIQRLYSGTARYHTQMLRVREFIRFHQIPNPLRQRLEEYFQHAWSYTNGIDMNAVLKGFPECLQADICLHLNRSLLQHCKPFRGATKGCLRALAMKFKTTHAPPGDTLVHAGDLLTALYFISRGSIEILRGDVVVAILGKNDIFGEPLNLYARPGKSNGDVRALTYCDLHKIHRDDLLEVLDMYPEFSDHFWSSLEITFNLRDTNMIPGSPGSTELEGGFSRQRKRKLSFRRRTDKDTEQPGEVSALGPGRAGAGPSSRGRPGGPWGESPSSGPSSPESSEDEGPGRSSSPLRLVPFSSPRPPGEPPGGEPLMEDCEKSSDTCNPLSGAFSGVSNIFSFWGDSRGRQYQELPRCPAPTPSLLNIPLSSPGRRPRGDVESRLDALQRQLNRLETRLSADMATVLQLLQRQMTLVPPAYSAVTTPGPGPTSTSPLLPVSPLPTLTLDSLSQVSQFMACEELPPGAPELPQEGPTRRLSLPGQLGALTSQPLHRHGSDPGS
Chain of TYK2 JH2 pseudokinase (P29597 589-875 limits assumed): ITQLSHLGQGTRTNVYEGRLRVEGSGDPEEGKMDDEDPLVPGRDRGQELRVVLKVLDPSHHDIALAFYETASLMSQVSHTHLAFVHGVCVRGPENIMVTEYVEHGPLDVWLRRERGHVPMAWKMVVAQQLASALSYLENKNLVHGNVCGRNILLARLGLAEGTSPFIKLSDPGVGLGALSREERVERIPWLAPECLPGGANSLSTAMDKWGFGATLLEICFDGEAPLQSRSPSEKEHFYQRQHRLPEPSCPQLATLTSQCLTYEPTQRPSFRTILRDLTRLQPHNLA
Chain of JAK2 JH1 kinase (O60674 849-1124 limits assumed): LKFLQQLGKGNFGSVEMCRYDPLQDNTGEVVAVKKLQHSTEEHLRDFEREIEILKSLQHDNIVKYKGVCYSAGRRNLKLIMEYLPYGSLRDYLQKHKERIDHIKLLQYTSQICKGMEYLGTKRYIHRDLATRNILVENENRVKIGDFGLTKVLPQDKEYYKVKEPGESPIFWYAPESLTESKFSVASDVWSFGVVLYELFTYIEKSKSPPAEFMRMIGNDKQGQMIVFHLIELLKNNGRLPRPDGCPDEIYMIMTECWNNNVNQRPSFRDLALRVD
Chain of JAK3 JH1 kinase (P52333 822-1111 limits assumed): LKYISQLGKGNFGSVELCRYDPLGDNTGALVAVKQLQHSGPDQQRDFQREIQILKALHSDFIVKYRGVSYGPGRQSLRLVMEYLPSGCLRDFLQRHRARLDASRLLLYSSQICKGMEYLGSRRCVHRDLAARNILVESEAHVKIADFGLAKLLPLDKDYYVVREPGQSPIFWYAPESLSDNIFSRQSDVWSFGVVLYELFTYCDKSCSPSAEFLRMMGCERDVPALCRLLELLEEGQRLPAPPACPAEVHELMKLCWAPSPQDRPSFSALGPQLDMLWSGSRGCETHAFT
Chain of JAK1 JH2 pseudokinase (P23458 583-855 limits assumed): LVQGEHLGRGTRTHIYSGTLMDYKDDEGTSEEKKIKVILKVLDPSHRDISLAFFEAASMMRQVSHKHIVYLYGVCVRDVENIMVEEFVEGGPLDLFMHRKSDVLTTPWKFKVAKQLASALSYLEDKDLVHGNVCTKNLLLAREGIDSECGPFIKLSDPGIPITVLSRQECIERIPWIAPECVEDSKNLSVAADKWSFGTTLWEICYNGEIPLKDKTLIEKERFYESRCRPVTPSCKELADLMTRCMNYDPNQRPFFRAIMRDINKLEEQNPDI

Row | Compound | IC50 [1] [nM] | IC50 [2] [nM] | Improvement of psoriasis symptoms by oral administration [3] | GI50 [4] [nM] | IC50 [5] [nM] | IC50 [6] [nM] | IC50 [7] [nM] | hERG inhibition [8] | IC50 [9] [nM]
1 | [2H]C([2H])([2H])NC(=O)c1nnc(NC(=O)C2CC2)cc1Nc1cccc(C(=O)Nc2ccc(C)cc2)c1OC [Example 2] | > 10000 | > 10000 | effectively improve psoriasis symptoms | 1 to 5 | > 10000 | 0.311 | > 10000 | no significant inhibition | 6.56
2 | [2H]C([2H])([2H])NC(=O)c1nnc(NC(=O)C2CC2)cc1Nc1cccc(C(=O)Nc2ccc(C)c(C)c2)c1OC [Example 4] | > 10000 | > 10000 | effectively improve psoriasis symptoms | 1 to 5 | > 10000 | 0.293 | > 10000 | no significant inhibition | 5.33
3 | [2H]C([2H])([2H])NC(=O)c1nnc(NC(=O)C2CC2)cc1Nc1cccc(C(=O)Nc2ccc(F)cc2)c1OC [Example 5] | > 10000 | > 10000 | effectively improve psoriasis symptoms | 1 to 5 | > 10000 | 0.281 | > 10000 | no significant inhibition | 6.93
4 | [2H]C([2H])([2H])NC(=O)c1nnc(NC(=O)C2CC2)cc1Nc1cccc(C(=O)Nc2cnn(C)c2)c1OC [Example 34] | > 10000 | > 10000 | effectively improve psoriasis symptoms | 1 to 5 | > 10000 | 0.341 | > 10000 | no significant inhibition | 4.16
5 | [2H]C([2H])([2H])NC(=O)c1nnc(NC(=O)C2CC2)cc1Nc1cccc(C(=O)Nc2cncc(C)c2)c1OC [Example 38] | > 10000 | > 10000 | effectively improve psoriasis symptoms | 1 to 5 | > 10000 | 0.322 | > 10000 | no significant inhibition | 2.35
6 | [2H]C([2H])([2H])NC(=O)c1cnc(NC(=O)C2CC2)cc1Nc1cccc(C(=O)Nc2ccc(C)cc2)c1OC [Example 54] | > 10000 | > 10000 | effectively improve psoriasis symptoms | 1 to 5 | > 10000 | 0.302 | > 10000 | no significant inhibition | 4.56
7 | [2H]C([2H])([2H])NC(=O)c1cnc(NC(=O)C2CC2)cc1Nc1cccc(C(=O)Nc2cccc(C)c2)c1OC [Example 55] | > 10000 | > 10000 | effectively improve psoriasis symptoms | 1 to 5 | > 10000 | 0.298 | > 10000 | no significant inhibition | 3.3
8 | [2H]C([2H])([2H])NC(=O)c1cnc(NC(=O)C2CC2)cc1Nc1cccc(C(=O)Nc2ccc(F)cc2)c1OC [Example 57, 6-(Cyclopropanecarboxamido)-4-((3-((4-fluorophenyl)carbamoyl)-2-methoxyphenyl)amino)-N-(methyl-d3)nicotinamide] | > 10000 | > 10000 | effectively improve psoriasis symptoms | 1 to 5 | > 10000 | 0.284 | > 10000 | no significant inhibition | 5.68
9 | [2H]C([2H])([2H])NC(=O)c1cnc(NC(=O)C2CC2)cc1Nc1cccc(C(=O)Nc2ccc(C)c(C)c2)c1OC [Example 62] | > 10000 | > 10000 | effectively improve psoriasis symptoms | 1 to 5 | > 10000 | 0.277 | > 10000 | no significant inhibition | 14.3
10 | [2H]C([2H])([2H])NC(=O)c1cnc(NC(=O)C2CC2)cc1Nc1cccc(C(=O)Nc2cnn(C)c2)c1OC [Example 86] | > 10000 | > 10000 | effectively improve psoriasis symptoms | 1 to 5 | > 10000 | 0.299 | > 10000 | no significant inhibition | 17.6
